Assay results taken from US20210169961A1, “HEPATOPROTECTIVE TRADITIONAL CHINESE MEDICINE COMPOSITION, EXTRACT THEREOF, AND PHARMACEUTICAL USE THEREOF” (SHUGUANG HOSPITAL AFFILIATED TO SHANGHAI UNIVERSITY OF …, priority 2018, published 2021).

Key:
Format in all cases: in vivo, human
[1] = tested on: CHB patients (hepatic fibrosis); experiment: Curative effect on patients with hepatic fibrosis, double-blind placebo-control multicenter trial (Example 34); settings: after 12 months, treatment group: Entecavir + test sample, P<0.001
[2] = tested on: patients with advanced primary hepatocarcinoma after surgery; experiment: Curative effect of the compound granules on patients with liver cancer (Example 36); settings: for patients of liver cancer recurred: test sample + Entecavir vs Entecavir
[3] = tested on: patients with HBeAg negative chronic hepatitis B; experiment: Curative effects on patients with hepatitis B, randomized controlled trial (Example 31); settings: after 30-month treatment, control group: Entecavir + placebo

For `C=C1[C@H](CO)[C@@H](O)C[C@@H]1n1cnc2c(=O)[nH]c(N)nc21` [Entecavir], the “HBeAg levels compared to those before treatment” value [1] was “remarkably decreased”, the “therapeutic effects on traditional Chinese medicine symptoms: invalid cases” value ([2]; after treatment) was 65 cases and the “therapeutic effects on traditional Chinese medicine symptoms: patients with curative effect” value ([2]; after treatment) was 0 patients. For the same molecule, the “therapeutic effects on traditional Chinese medicine symptoms: valid cases” value ([2]; after treatment) was 16 cases, the “patients with nausea and vomiting improved” value ([2]; among 38 patients (treatment group) / 51 patients (control group)) was 15 cases and the “patients with tastelessness improved” value ([2]; among 61 patients (treatment group) / 58 patients (control group)) was 25 cases. The “patients with stomach distension improved” value ([2]; among 68 patients (treatment group) / 62 patients (control group)) was 35 cases, the “patients with fatigue and acratia improved” value ([2]; among 73 patients (treatment group) / 69 patients (control group)) was 45 cases and the “patients of liver cancer recurred” value ([2]; at 3 months of follow-up visit) was 48 patients. For the same molecule, the “patients of liver cancer recurred” value ([2]; at 3 months of treatment) was 13 patients, the “patients of liver cancer recurred” value ([2]; at 6 months of treatment) was 44 patients and the accumulative survival rate ([2]; treatment group: test sample 60 g clear extract/day + Entecavir 0.5 mg/day, control group: Entecavir 0.5 mg/day) was 76.7%. The ALT recurrence rate ([3]; treatment group: test sample 60 g clear extract/day + Entecavir 0.5 mg/day) was 93.2% and the “HBsAg averagely reduced by” value ([3]; treatment group: test sample + Entecavir) was 0.028 log IU/ml.
